# The NIST ThermoML archive (doi:10.1016/j.jct.2013.08.012)
# Numbers after ± are expanded uncertainties.
# Assay: molar enthalpy of vaporization or sublimation
# Details: 298.15 K; Crystal; Static calorimetry
row,SMILES,molar enthalpy
1,O=C1Cc2ccccc2O1 [2-coumaranone],78.7 ± 1.7 kJ/mol
2,O=C1COc2ccccc21 [3-coumaranone],85.8 ± 1.7 kJ/mol
